Assay [1] addresses T1, Neutrophil elastase (Homo sapiens) (UniProt P08246).
T1 sequence (whole entry): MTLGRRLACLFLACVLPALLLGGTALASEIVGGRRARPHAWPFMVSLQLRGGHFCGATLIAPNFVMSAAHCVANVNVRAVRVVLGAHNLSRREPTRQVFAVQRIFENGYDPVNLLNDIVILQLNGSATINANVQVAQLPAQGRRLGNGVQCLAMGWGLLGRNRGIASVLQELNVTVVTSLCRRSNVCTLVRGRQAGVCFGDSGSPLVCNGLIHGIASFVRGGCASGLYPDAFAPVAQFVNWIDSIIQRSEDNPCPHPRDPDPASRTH
Description: Ratio of Kinact to KI for human neutrophil elastase.

For another assay, the species on record is Bos taurus. Description: Inhibition of bovine trypsin. Conditions: TDE = time-dependent effect.
The next assay deals with T2, Neutrophil elastase (Homo sapiens, UniProt P08246).
T2 sequence (P08246 whole entry): T1 sequence (whole entry)
Description: Inhibition human neutrophil elastase.

From ChEMBL document CHEMBL1145543, “X-ray snapshot of the mechanism of inactivation of human neutrophil elastase by 1,2,5-thiadiazolidin-3-one 1,1-dioxide derivatives” (J Med Chem, 2008) come the findings set out here.

As to `CCCC1C(=O)N(COC(=O)c2c(Cl)cccc2Cl)S(=O)(=O)N1C` (stereo not drawn), the Ratio in assay [1] was 8.9 10^6/M/s. Further, in the assay filed under Bos taurus, the Activity entry is “tde”. In addition, the Ki on Neutrophil elastase came out at 5.47 nM.

The Ki is the dissociation constant of the complex between target and ligand, obtained from inhibition or displacement. A higher Ki goes with a looser hold on the target.
